Data set [1] deals with platelets (ADP-induced aggregation). The data set is described as follows: Inhibition of ADP-induced platelet aggregation at 100 μM (FIG. 1). The class given is cell-based, human. The conditions noted are these: 100 μM compound. The method, then:
(§1) Blood was collected from healthy volunteers into syringes containing ⅙ final blood volume of anti-coagulant ACD (65 mM citric acid, 85 mM sodium citrate, 110 mM dextrose) for washed platelet (WP) preparation or into a syringe containing a final concentration of 10 units/mL heparin or 300 μM PPACK for whole blood (WB) assays. The blood collected for whole blood assays was maintained at room temperature and immediately tested as described below. The blood collected for WP was centrifuged at 180 g for 15 minutes and the supernatant (platelet rich plasma) was removed. The platelet rich plasma was centrifuged and the platelets were pelleted and resuspended in a buffer consisting of (mM): NaCl (137), KCl (2.7), CaCl2 (2) MgCl2 (1), NaH2PO4 (3), Glucose (5), HEPES (10), pH 7.4, 0.2% BSA. These centrifugations and washes were repeated twice following by resuspension in the media described above containing 0.25 U apyrase/mL. Platelet aggregation was measured using the optical mode of a CHRONOLOG® aggregometer (Havertown, Pa.). Five hundred μl of platelet suspension containing 1 mg/mL Fibrinogen were warmed to 37° C. and stirred at 1000 rpm. Indicated concentrations of ADP were added to the sample and aggregation was monitored for 8 minutes. The effect of the compounds described in this invention were studied following the same protocol with the exception that the inhibitor was incubated for 2-5 minutes prior to the addition of a maximally effective concentration of ADP. For whole blood aggregation, blood was diluted 1:1 with saline and then aggregation was performed in the same manner as described above using the impedance mode of the aggregometer. The potency of agonists and inhibitors of platelet aggregation was calculated from both, the rate of aggregation and the maximal extent of aggregation obtained for each determination by fitting the data to a four-parameter logistic equation using the […]® software package (GraphPad Corp. San Diego, Calif.).
The ability of P2Y12 antagonists to inhibit platelet aggregation is presented in this application as the percent inhibition of the aggregation induced by a maximally effective concentration of ADP. When a broad range of concentrations of P2Y12 antagonist was tested (usually from 1 nM to 100 μM), an IC50 value was also obtained.
Different compounds were tested for their inhibition of ADP-induced aggregation and their IC50 according to the protocols in Example 19; the results are shown in FIG. 1. The bar graphs in the figure illustrate the effect of 100 μM concentration of the compound on ADP-induced platelet aggregation, and the data are expressed as % inhibition of the ADP response.
Where hydrogens are understood to be present, they have been omitted for the sake of simplicity. […]

Data set [2] relates to washed platelet (ADP-induced aggregation; P2Y12 receptor). As to the kind of experiment: ADP-induced platelet aggregation, washed platelet preparation. It counts as cell-based. The conditions noted are these: Homo sapiens, inhibition of ADP-induced aggregation, washed platelets, average of at least two separate experiments. The method, then:
as §1, with “The blood collected for WP was centrifuged at 180 g for 15 minutes and the supernatant (platelet rich plasma) was removed. The platelet rich plasma was centrifuged and the platelets were pelleted and resuspended in a buffer consisting of (mM): NaCl (137), KCl (2.7), CaCl2 (2) MgCl2 (1), NaH2PO4 (3), Glucose (5), HEPES (10), pH 7.4, 0.2% BSA.” left out, “The effect of the compounds described in this invention were studied following the same protocol with the exception that the inhibitor was incubated for 2-5 minutes prior to the addition of a maximally effective concentration of ADP.” left out
The ability of P2Y12 antagonists to inhibit platelet aggregation is presented in this application as the percent inhibition of the aggregation induced by a maximally effective concentration of ADP.
Data presented are from the average of at least two separate experiments.

The target of the next data set is P2Y6 (Homo sapiens, UniProt Q15077). As to the kind of experiment: Calcium mobilization assay, P2Y6.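 Note: test compound added first then a maximal dose of the cognate agonist.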 The class given is cell-based. Further details: key: no response (NR). Particulars: activation of P2Y6 receptor.
Chain of P2Y6 (Q15077 whole entry, species assumed): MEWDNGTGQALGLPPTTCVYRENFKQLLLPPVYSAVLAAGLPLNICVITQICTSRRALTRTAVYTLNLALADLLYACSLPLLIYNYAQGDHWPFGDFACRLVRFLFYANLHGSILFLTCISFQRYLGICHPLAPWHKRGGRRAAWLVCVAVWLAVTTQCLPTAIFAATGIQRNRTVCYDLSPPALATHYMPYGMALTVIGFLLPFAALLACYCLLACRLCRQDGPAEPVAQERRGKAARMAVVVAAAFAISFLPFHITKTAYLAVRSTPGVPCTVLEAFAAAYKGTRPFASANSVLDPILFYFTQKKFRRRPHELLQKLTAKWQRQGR
Data set [3] relates to systemic intravascular thromboembolism. As to the kind of experiment: Thromboembolism-induced mortality (collagen and epinephrine) in mice. The class given is in vivo. Particulars: 25 mg/kg single IV bolus five minutes before 0.3 mg/kg collagen and 60 μg/kg epinephrine. The method, then: Ten anesthetized mice were treated with vehicle (control) or with a single bolus intravenous administration of test compound (usually between 10 and 25 mg/kg). Five minutes after treatment, the animals were injected with a mixture of 0.3 mg/kg collagen and 60 μg/kg epinephrine. The survival time after the administration of collagen and epinephrine in animals pretreated with saline or 25 mg/kg of the test compound 2′3′-(trans)cinnamyl acetal-6-N-ethylurea AMP (compound 41), are shown using the Kaplan-Meier plot in FIG. 3. Ninety percent of the vehicle-pretreated animals died within 6 minutes after the IV injection of collagen and epinephrine.

The target in a further data set is P2Y4 (Homo sapiens, UniProt P51582). As to the kind of experiment: Calcium mobilization assay, P2Y4.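 Note: test compound added first then a maximal dose of the cognate agonist.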 The class given is cell-based. More on the design: key: no response (NR). The conditions noted are these: activation of P2Y4 receptor. For orientation: Calcium assays in cells follow changes in intracellular calcium, usually with a dye or a luminescent sensor.
Chain of P2Y4 (P51582 whole entry, species assumed): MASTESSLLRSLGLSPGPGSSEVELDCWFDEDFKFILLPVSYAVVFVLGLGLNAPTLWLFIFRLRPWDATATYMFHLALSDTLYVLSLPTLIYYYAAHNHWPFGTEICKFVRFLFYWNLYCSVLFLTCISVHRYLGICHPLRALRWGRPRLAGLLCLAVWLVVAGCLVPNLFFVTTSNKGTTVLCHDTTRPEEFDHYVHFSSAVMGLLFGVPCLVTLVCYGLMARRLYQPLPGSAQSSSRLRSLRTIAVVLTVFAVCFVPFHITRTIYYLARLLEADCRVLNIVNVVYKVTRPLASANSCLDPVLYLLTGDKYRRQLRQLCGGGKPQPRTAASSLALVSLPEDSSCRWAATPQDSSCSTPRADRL
The subject of data set [4] is platelet aggregation (platelet rich plasma). The data set is described as follows: Ex-vivo ADP-induced platelet aggregation after intravenous administration in mice. The method, then:
In order to evaluate the effects of inhibition of platelet aggregation in-vivo by the compounds described in this invention, experimental protocols similar to those described by Leon et al. (Circulation 103:718-723, 2001) were performed.
Anesthetized mice were injected intravenously with either saline or with different doses of trans-2′,3′-cinnamyl acetal-6N-ethylurea adenosine 5′-monophosphate, bis sodium salt (Compound 41), usually between 1 and 100 μg/kg. Five minutes after the administration of the compound, 700 μL of blood were obtained from each animal. The blood of two animals was combined and immediately processed to obtain platelet rich plasma for the assessment of platelet aggregation stimulated by 1 and 5 μM ADP. Platelet aggregation was measured using optical aggregometry as described in Example 21.
A key characteristic of the compounds described in this invention is the reversible nature of the inhibition of platelet aggregation. The model system described in Example 28 was also used to study the kinetics of in-vivo inhibition of platelet aggregation with selected compounds. Briefly, a maximally effective concentration of test compound was administered intravenously, and blood samples were obtained before and at different times (usually 0, 1, 5, 15 and 30 minutes) after the administration of trans-2′,3′-cinnamyl acetal-6N-ethylurea adenosine 5′-monophosphate, bis sodium salt (Compound 41). Blood samples were processed immediately and aggregation induced by 1 μM and 5 μM ADP was estimated as described in Example 31.

Data set [5] in a line: Plasma levels of test compound during and after IV infusion in dogs (LC/MS/MS). The class given is in vivo. The conditions noted are these: both sexes, beagle, dog, after the end of infusion, one-compartment model analysis, FIG. 5B. The method, then:
(§2) Two weeks prior to the study, beagle dogs were implanted with jugular catheters and vascular access ports. Groups of four dogs (two of each sex) were fitted with jackets and connected to ambulatory infusion pumps for drug administration.
(§3) The day of the study, dogs were treated with a continuous infusion of different concentrations of test compound (usually between 0.1 and 1.5 mg/kg/h) for 90 minutes at a rate of 3 mL/kg/h. Approximately 30 minutes and 15 minutes prior to the start of infusion (predose samples), at different times during each infusion period (usually 10, 30, 60, and 90 minutes), and after the termination of the infusion (usually 5, 10, 20, 30, 40, 60, 120, and 240 minutes and 18, 20, 22, and 24 hours), blood was withdrawn from a cephalic vein catheter for the assessment of ex-vivo whole blood platelet aggregation assays and/or for bioanalytical determination of the plasma levels of the test compound. Platelet aggregation was estimated using the impedance mode of a CHRONOLOG® aggregometer as described in Example 24, and the plasma levels of the test compound were analyzed on an API 4000 LC/MS/MS system coupled with an Agilent 1100 series liquid chromatograph.
The pharmacological effect of the administration of the test compound correlated closely with the plasma levels of the compound. […]

The next data set deals with P2Y2 (Homo sapiens, UniProt P41231). As to the kind of experiment: Calcium mobilization assay, P2Y2.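 Note: test compound added first then a maximal dose of the cognate agonist.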 It counts as cell-based. Further details: key: no response (NR). The conditions noted are these: activation of P2Y2 receptor.
Chain of P2Y2 (P41231 whole entry, species assumed): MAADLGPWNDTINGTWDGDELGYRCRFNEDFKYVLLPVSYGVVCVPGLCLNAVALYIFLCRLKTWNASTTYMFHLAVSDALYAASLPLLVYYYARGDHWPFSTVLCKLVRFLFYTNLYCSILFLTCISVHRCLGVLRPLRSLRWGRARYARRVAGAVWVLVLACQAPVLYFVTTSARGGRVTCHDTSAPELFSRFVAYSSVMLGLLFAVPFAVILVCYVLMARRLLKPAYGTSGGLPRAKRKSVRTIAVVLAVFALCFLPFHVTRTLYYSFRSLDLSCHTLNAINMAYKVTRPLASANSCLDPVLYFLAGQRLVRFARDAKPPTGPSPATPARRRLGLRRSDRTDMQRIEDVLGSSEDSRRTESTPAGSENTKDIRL
The target of a further data set is P2Y1 (Homo sapiens, UniProt P47900). The data set is described as follows: Calcium mobilization assay, P2Y1.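 Note: test compound added first then a maximal dose of the cognate agonist.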 The class given is cell-based. The conditions noted are these: activation of P2Y1 receptor. Further details: key: no response (NR).
Chain of P2Y1 (P47900 whole entry, the tested form may be a part): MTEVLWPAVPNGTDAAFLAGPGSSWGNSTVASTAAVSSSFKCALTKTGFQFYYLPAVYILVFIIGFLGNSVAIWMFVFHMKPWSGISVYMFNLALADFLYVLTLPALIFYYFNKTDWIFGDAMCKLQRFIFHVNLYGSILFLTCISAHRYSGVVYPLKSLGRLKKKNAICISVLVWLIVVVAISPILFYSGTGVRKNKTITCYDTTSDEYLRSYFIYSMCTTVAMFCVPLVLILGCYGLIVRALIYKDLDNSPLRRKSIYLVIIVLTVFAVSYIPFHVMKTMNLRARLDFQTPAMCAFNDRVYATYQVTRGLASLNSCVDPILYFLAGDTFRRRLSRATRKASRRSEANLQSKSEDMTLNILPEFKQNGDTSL
For data set [6], the system named is whole blood platelet aggregation. The data set is described as follows: Ex-vivo whole blood platelet aggregation during and after continuous IV infusion in dogs. More on the design: species or system beagle dogs. The method, then:
as §2, §3

Counter-ions that a name gives are not always drawn. Bounds are passed on as bounds.

Here are results for five molecules from patent publication US7452870B2, “Drug-eluting stents coated with P2Y12 receptor antagonist compound” (Inspire Pharmaceuticals, Inc., priority 2000, dated 2008).

The term IC50 denotes the point on the concentration scale where inhibition reaches its midpoint. One may read the half-life as the time in which the quantity being followed falls by half.

For `Nc1ccn([C@@H]2O[C@H](COP(=O)(O)OP(=O)(O)OP(=O)(O)OP(=O)(O)OC[C@H]3O[C@@H](n4ccc(=O)[nH]c4=O)[C@H](O)[C@@H]3O)[C@@H](O)[C@H]2O)c(=O)n1` [Cp4U, P^1-(cytidine 5′-)-P^4-(uridine 5′-) tetraphosphate], the “inhibition of ADP-induced aggregation” value in [1] is listed as “do not inhibit”.
On the same count and under the same terms, the value for `O=c1ccn([C@@H]2O[C@H](COP(=O)(O)OP(=O)(O)OP(=O)(O)OC[C@@H]3O[C@@H](n4ccc(=O)[nH]c4=O)C(O)[C@@H]3O)[C@H](O)C2O)c(=O)[nH]1` (stereo partly drawn) [Up3U, P^1,P^3-Di(uridine 5′-) triphosphate] was “do not inhibit”.
As for `O=c1ccn([C@@H]2O[C@H](COP(=O)(O)OP(=O)(O)OP(=O)(O)OP(=O)(O)OC[C@H]3O[C@@H](n4cnc5c(=O)[nH]cnc54)[C@H](O)[C@@H]3O)[C@@H](O)[C@H]2O)c(=O)[nH]1` [Ip4U], the “inhibition of ADP-induced aggregation” value in data set [1] was “do not inhibit”.
The same measure, in the same setting: the value for `O=c1ccn([C@@H]2O[C@H](COP(=O)(O)OP(=O)(O)OP(=O)(O)OP(=O)(O)OC[C@H]3O[C@@H](n4ccc(=O)[nH]c4=O)[C@H](O)[C@@H]3O)[C@@H](O)[C@H]2O)c(=O)[nH]1` [Up4U] was “do not inhibit”.
On to `CCNC(=O)Nc1ncnc2c1ncn2[C@@H]1O[C@H](COP(=O)(O)O)C2O[C@H](/C=C/c3ccccc3)OC21` (stereo in doubt) [Compound 41, Phosphoric acid mono-{6-[6-(3-ethyl-ureido)-purin-9-yl]-2-styryl-tetrahydro-furo[3,4-d][1,3]dioxol-4-ylmethyl} ester bis sodium salt], for which inhibition in data set [2] was half-maximal at 13 ± 2 nM (IC50). The “Calcium Mobilization P2Y6” value on P2Y6 was “NR”. Moreover, the “mortality resulting from systemic intravascular thromboembolism” value in data set [3] is given as 20%. The “Calcium Mobilization P2Y4” value at P2Y4 is given as “NR”. Moreover, in data set [4] (intravenous maximally effective concentration, 1 μM and 5 μM ADP, 5 minutes), the “inhibition of ADP-induced platelet aggregation five minutes after administration” value is “Complete inhibition”. The “aggregation response to ADP by 30 minutes after administration” value in data set [4] (intravenous maximally effective concentration, 1 μM and 5 μM ADP, 30 minutes) is reported as “returned to values similar to those observed in control animals”. Besides, the “inhibition of platelet aggregation, dose dependence” value in data set [4] (intravenous, blood taken five minutes after administration, 1 and 5 μM ADP) is reported as “dose-dependent inhibition”; in data set [6] (continuous intravenous infusion for 90 minutes) it was “dose-dependent inhibition”. This molecule displayed a half-life in data set [5] of roughly 7 min. The “Calcium Mobilization P2Y2” value on P2Y2 is on record as “NR”. For the same molecule, the “Calcium Mobilization P2Y1” value at P2Y1 is given as “NR”. Also, the “restoration of platelet aggregation following termination of infusion” value in data set [6] (after end of IV infusion, FIG. 5A) was “nearly complete restoration of platelet aggregation within an hour”. Also, in data set [6] (continuous IV infusion, FIG. 5A (0.3 mg/kg/h)), the “time at which the pharmacodynamic effect reached steady state” value was no more than 30 min. Moreover, in [6] (continuous intravenous infusion), the “infusion rate giving the maximal inhibitory effect on platelet aggregation” value came out at 0.3 mg/kg/h.
